We go through six compounds from ChEMBL document CHEMBL3112431, “Constrained TRPV1 agonists synthesized via silver-mediated intramolecular azo-methine ylide cycloaddition of α-iminoamides” (Bioorg Med Chem Lett, 2014).

Structures are written as SMILES. The source made the active and inactive calls. The rule behind the calls is not given here.

Transient receptor potential cation channel subfamily V member 1 (Rattus norvegicus), sequence (O35433 whole entry): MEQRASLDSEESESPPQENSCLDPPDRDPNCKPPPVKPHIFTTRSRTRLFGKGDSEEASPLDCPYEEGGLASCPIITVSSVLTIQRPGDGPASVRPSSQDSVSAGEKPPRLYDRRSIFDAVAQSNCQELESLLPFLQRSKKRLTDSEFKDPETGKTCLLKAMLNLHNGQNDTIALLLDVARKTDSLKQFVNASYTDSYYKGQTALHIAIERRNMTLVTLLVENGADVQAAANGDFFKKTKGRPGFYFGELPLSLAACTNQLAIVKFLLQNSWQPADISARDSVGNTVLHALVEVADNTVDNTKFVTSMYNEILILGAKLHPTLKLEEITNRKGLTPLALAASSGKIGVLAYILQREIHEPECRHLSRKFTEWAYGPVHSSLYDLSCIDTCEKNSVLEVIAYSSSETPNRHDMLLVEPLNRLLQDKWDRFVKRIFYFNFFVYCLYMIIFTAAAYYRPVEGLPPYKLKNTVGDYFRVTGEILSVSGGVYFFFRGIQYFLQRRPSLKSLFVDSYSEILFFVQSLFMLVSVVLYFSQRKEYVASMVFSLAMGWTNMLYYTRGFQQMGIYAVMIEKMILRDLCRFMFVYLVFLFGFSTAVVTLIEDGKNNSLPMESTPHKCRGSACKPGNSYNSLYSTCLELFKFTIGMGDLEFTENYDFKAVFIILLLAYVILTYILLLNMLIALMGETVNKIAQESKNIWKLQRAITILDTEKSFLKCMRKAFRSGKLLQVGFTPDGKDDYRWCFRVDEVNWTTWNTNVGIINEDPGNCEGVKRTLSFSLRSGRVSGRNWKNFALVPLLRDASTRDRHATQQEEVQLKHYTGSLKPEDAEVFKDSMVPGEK

The first assay concerns the target Transient receptor potential cation channel subfamily V member 1 (Rattus norvegicus) (UniProt O35433). Put plainly: Agonist activity at TRPV1 in rat dorsal root ganglia neurons by 45Ca2+ uptake assay.
As to `CCOC(=O)[C@H]1[C@H]2COc3ccc(Cl)cc3[C@@H]2N2C(=O)c3ccc(C)cc3NC(=O)[C@@]12C`, the outcome was Active. The same measure, in the same setting: in the case of `COc1cc(CNC(=O)CCCC/C=C/C(C)C)ccc1O` it was “Active”.

The next assay has the same target. Briefly: Partial agonist activity at TRPV1 in rat dorsal root ganglia neurons by 45Ca2+ uptake assay.
`CCOC(=O)[C@@H]1[C@H]2COc3ccc(F)cc3[C@@H]2N[C@]1(C)C(=O)Nc1cc(C)ccc1C(=O)OC`: the outcome was Active. On to `CCOC(=O)[C@@H]1[C@H]2COc3ccc(OC)cc3[C@@H]2N[C@]1(C)C(=O)Nc1cc(C)ccc1C(=O)OC`, for which the result was Active. Consider `CCOC(=O)[C@@H]1[C@H]2COc3c(F)cccc3[C@@H]2N[C@]1(C)C(=O)Nc1cc(C)ccc1C(=O)OC`, for which the result was Active. Still for that read-out and setting: in the case of `CCOC(=O)[C@@H]1[C@H]2COc3ccc(Cl)cc3[C@@H]2N[C@]1(C)C(=O)Nc1cc(C)ccc1C(=O)OC` it was “Active”.
